According to the supplement of paper PMC10307832:

Assays:
Assay in all cases: relative viability (nuclei count vs DMSO), 5 days (fraction); higher = more cells survive
[1] = compound: CC1=NN=C(O1)C2=NN=C(C=C2)N3CCC(CC3)OC4=C(C=CC(=C4)F)Cl + CC(=O)Nc1cccc(-n2c(=O)n(C3CC3)c(=O)c3c(Nc4ccc(I)cc4F)n(C)c(=O)c(C)c32)c1 [Trametinib] (partner 0.02 µM)
Outline: (§1)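 Nuclei were stained with Hoechst during a one-step fixation (final 0.05% Triton X-100, 1% formaldehyde, 1 ug/ml Hoechst) carried out 5 days after dosing, then counted on 4× images. The cells, lung cancer lines in 1536-well plates, had been dosed by pin tool the day after seeding with one drug alone or a fixed anchor-drug dose plus five library-drug doses (not always all listed) in √10 steps. Relative viability is the nuclei count in treated wells divided by that in vehicle wells, and each value is the median of duplicate plates.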

Tosedostat + Crizotinib = compound: CC(C)C[C@@H](C(=O)N[C@H](C(=O)OC1CCCC1)c1ccccc1)[C@H](O)C(=O)NO [Tosedostat] + C[C@@H](Oc1cc(-c2cnn(C3CCNCC3)c2)cnc1N)c1c(Cl)ccc(F)c1Cl [Crizotinib] (partner 1 µM)
Outline: as §1

[2] = compound: CC1=NN=C(O1)C2=NN=C(C=C2)N3CCC(CC3)OC4=C(C=CC(=C4)F)Cl + O=C(CCCCCCC(=O)Nc1ccccc1)NO [Vorinostat] (partner 1 µM)
Outline: as §1

[3] = compound: CC1=NN=C(O1)C2=NN=C(C=C2)N3CCC(CC3)OC4=C(C=CC(=C4)F)Cl + CC(=O)c1c(C)c2cnc(Nc3ccc(N4CCNCC4)cn3)nc2n(C2CCCC2)c1=O [Palbociclib] (partner 0.5 µM)
Outline: as §1

Cell Line: UMC-11
- relative viability ([1]; first compound 0.253 µM): 0.457
- relative viability ([1]; first compound 0.8 µM): 0.531
- relative viability ([1]; first compound 2.53 µM): 0.33
- relative viability ([1]; first compound 8 µM): 0.43
- relative viability (Tosedostat + Crizotinib; first compound 0.02 µM): 0.688
- relative viability (Tosedostat + Crizotinib; first compound 0.06325 µM): 0.648
- relative viability (Tosedostat + Crizotinib; first compound 0.2 µM): 0.6
- relative viability (Tosedostat + Crizotinib; first compound 0.6325 µM): 0.559
- relative viability (Tosedostat + Crizotinib; first compound 2 µM): 0.459
- relative viability ([2]; first compound 0.253 µM): 0.361
- relative viability ([2]; first compound 0.8 µM): 0.351
- relative viability ([2]; first compound 2.53 µM): 0.431
- relative viability ([2]; first compound 8 µM): 0.383
- relative viability ([3]; first compound 0.253 µM): 0.303
- relative viability ([3]; first compound 0.8 µM): 0.271
- relative viability ([3]; first compound 2.53 µM): 0.3
- relative viability ([3]; first compound 8 µM): 0.39
